Laboratory results taken from US8394641B2, “Method of hydrolyzing an enzymatic substrate” (Advanced Liquid Logic Inc., priority 2009, dated 2013).

Test: 4-MU partitioning assay (forward and backward extraction) with cyclodextrins
Assay type: physicochemical
Conditions: for aqueous containment of 4-MU: independent of pH
Experimental: The assay format includes forward transfer partitioning (forward extraction; FE) of 4-MU from an aqueous phase to an oil phase and backward transfer partitioning (backward extraction; BE) of 4-MU from an oil phase to an aqueous phase. The assay is performed in 96-well microtiter substrates; clear 96-well substrates (e.g., Costar 3631) for evaluation of forward transfer partitioning with bottom probe fluorescence detection and solid black 96-well substrates (e.g., Costar 3915) for evaluation of backward transfer partitioning with top probe fluorescence detection. A BioTek Synergy HT instrument with 3 mm top probe and 5 mm bottom probe, may, for example, be used for fluorescence measurements. In one example, parameters that may be varied in the assay for evaluation of cyclodextrins in aqueous containment of 4-MU include, but are not limited to, ionic strength of the aqueous phase solution, pH of the aqueous phase solution (e.g., pH 2 or pH 5), and the molar ratio of cyclodextrins to 4-MU.
An example of an assay format used for testing the effect of cyclodextrins on contamination through 4-MU partitioning includes, but is not limited to, the following steps: Pipette an aliquot (20 μL) of an aqueous phase solution (e.g., at pH 2, pH5 or pH 10.5) containing a surfactant, such as 0.01% Tween® 20 in a well of a 96-well clear microtiter plate. […] Measure the fluorescence of each well using a bottom probe at gains 40, 45, and 50. […] Remove the aluminum foil and measure the fluorescence of each well using a top probe at gains 50, 60, 70, and 80. […]
Each well of the second microtiter plate (i.e., a solid black microtiter plate) contains 50 μL of an aqueous solution (200 mM NaHCO3) at pH 10.5. […] For fluorescence calibration, an aqueous solution containing 4-MU (0, 0.01, 0.1, or 1 μM) was added to the corresponding “empty” wells of Table 5 and overlaid with a 50 μL aliquot of fresh oil.
FIGS. 17A and 17B show data tables 1700 and 1750, respectively, of fluorescence readings for forward transfer and backward transfer, respectively, of the 4-MU partitioning assay of Tables 5 and 6. […]

| Substance | aqueous containment of 4-MU | contamination signal (back extraction) (molar ratio of Me-bCD to 4-MU 200:1, FIG. 16D) |
| --- | --- | --- |
| methyl-β-cyclodextrin | effective | lowest contamination signal |
| hydroxypropyl-β-cyclodextrin | effective | – |
